Among the data in ChEMBL document CHEMBL1132799, “Hybridization of non-sulfonylurea insulin secretagogue and thiazolidinedione-derived insulin sensitizer” (2000) are Activity values, retold here.

Experiment [1] deals with 3T3-L1. In words: Insulin-sensitizing activity; triglyceride accumulation from insulin regulated differentiation of 3T3-L1 cells at 1 uM expressed as percent activity of pioglitazone. The format is functional, Mus musculus.
The nature of experiment [2]: Insulin-releasing activity in HIT-T15 cells in the presence of 16.7 mM glucose at 10 uM expressed as percent activity of nateglinide. The format is functional, Cricetulus griseus.
Experiment [3] has as its system 3T3-L1. In words: Compound was tested for insulin-sensitizing activity by measuring triglyceride accumulation from insulin regulated differentiation of 3T3-L1 cells at 10 uM expressed as percent activity of pioglitazone. The format is functional, Mus musculus.

Regarding `O=C(O)/C(=C\c1ccc(OCc2ccc(C(F)(F)F)cc2)cc1)CC(=O)N1C[C@H]2CCCC[C@H]2C1`, the Activity with 3T3-L1 [1] is 15%; in experiment [2] it was 130%.

For the molecule `O=C(O)/C(=C\c1ccc(OCCc2ccc(C(F)(F)F)cc2)cc1)CC(=O)N1C[C@H]2CCCC[C@H]2C1`, the Activity in the experiment with 3T3-L1 [1] was 5%; in experiment [2], 93%.

As for `CCc1ccc(CCOc2ccc(CC(CC(=O)N3C[C@H]4CCCC[C@H]4C3)C(=O)O)cc2)nc1` (stereo partly specified), the Activity with 3T3-L1 [1] is 8%; in the experiment on 3T3-L1 [3] it was 30%; in experiment [2], 68%.

With `CCc1ccc(CCOc2ccc(CC(NC(=O)[C@H]3CC[C@H](C(C)C)CC3)C(=O)O)cc2)nc1` (stereo partly specified), the Activity worked out at 2% in the experiment on 3T3-L1 [1], 30% in the experiment on 3T3-L1 [3] and 33% in experiment [2].

`CCc1ccc(CCOc2ccc(C[C@@H](CC(=O)N3C[C@H]4CCCC[C@H]4C3)C(=O)O)cc2)nc1`: the figures for the Activity (in the experiment on 3T3-L1 [1]; in the experiment with 3T3-L1 [3]; in experiment [2]) were 4%, 11% and 105%, respectively.

On to `O=C(O)/C(=C\c1ccc(OCCCc2ccc(C(F)(F)F)cc2)cc1)CC(=O)N1C[C@H]2CCCC[C@H]2C1`, for which the Activity was found to be 4% with 3T3-L1 [1] and 130% in experiment [2].

On to `Cc1oc(-c2ccncc2)nc1CCOc1ccc(/C=C(\CC(=O)N2C[C@H]3CCCC[C@H]3C2)C(=O)O)cc1`, for which the Activity with 3T3-L1 [1] is on record as 93%; in experiment [2], 49%.

Turning to `CCc1ccc(CCOc2ccc(CC3SC(=O)NC3=O)cc2)nc1` (stereo unspecified) [PIOGLITAZONE], the figures for the Activity (with 3T3-L1 [1]; in the experiment with 3T3-L1 [3]; in experiment [2]) were 100%, 100% and 10%, respectively.

For `CCc1ccc(CCOc2ccc(/C=C(\CC(=O)N3C[C@H]4CCCC[C@H]4C3)C(=O)O)cc2)nc1`, the Activity was 20% in the experiment on 3T3-L1 [1], 50% with 3T3-L1 [3] and 136% in experiment [2].

On to `CN(CCOc1ccc(/C=C(\CC(=O)N2C[C@H]3CCCC[C@H]3C2)C(=O)O)cc1)c1ccccn1`, for which the Activity with 3T3-L1 [1] is 87%; in experiment [2], 60%.

`Cc1oc(C2CCCCC2)nc1CCOc1ccc(/C=C(\CC(=O)N2C[C@H]3CCCC[C@H]3C2)C(=O)O)cc1`: the Activity in the experiment with 3T3-L1 [1] is 83%; in experiment [2], 93%.

Take `CC(C)[C@H]1CC[C@H](C(=O)N[C@H](Cc2ccccc2)C(=O)O)CC1` [NATEGLINIDE]: the results for the Activity (with 3T3-L1 [1]; with 3T3-L1 [3]; in experiment [2]) were 6%, 40% and 100%, respectively.

As for `O=C(O)/C(=C/c1ccc(OCCn2ccc3ccccc32)cc1)CC(=O)N1C[C@H]2CCCC[C@H]2C1`, the Activity in the experiment on 3T3-L1 [1] is given as 9%; in experiment [2], 105%.

For the molecule `CN(CCOc1ccc(/C=C(\CC(=O)N2C[C@H]3CCCC[C@H]3C2)C(=O)O)cc1)c1nc2ccccc2o1`, the Activity with 3T3-L1 [1] is listed as 121%; in experiment [2], 60%.

As for `Cc1oc(-c2ccccc2)nc1CCOc1ccc(CC(CC(=O)N2C[C@H]3CCCC[C@H]3C2)C(=O)O)cc1` (stereo partly specified), the Activity in the experiment with 3T3-L1 [1] stood at 45%; in experiment [2] it was 85%.

On to `CCc1ccc(CCOc2ccc(C[C@H](CC(=O)N3C[C@H]4CCCC[C@H]4C3)C(=O)O)cc2)nc1`, for which the figures for the Activity (with 3T3-L1 [1]; with 3T3-L1 [3]; in experiment [2]) were 17%, 55% and 1%, respectively.

As to `Cc1oc(-c2ccccc2)nc1CCOc1ccc(/C=C(\CC(=O)N2C[C@H]3CCCC[C@H]3C2)C(=O)O)cc1`, the figures for the Activity (in the experiment on 3T3-L1 [1]; in experiment [2]) were 103% and 145%, respectively.
